Among the data in ChEMBL document CHEMBL1159194, “Two pimarane diterpenoids from Ephemerantha lonchophylla and their evaluation as modulators of the multidrug resistance phenotype” (J Nat Prod, 1998) are EC50 and Activity values, retold here.

Experiment [1] concerns the target ATP-dependent translocase ABCB1 (Homo sapiens, UniProt P08183). The experiment can be described thus: Inhibition of human MDR1 expressed in mouse B16/F10 cells assessed as increase in doxorubicin accumulation by fluorimetry. Type of experiment: cell-based. The conditions noted are these: read-out: ED50 (the source's name).
Experiment [2] relates to B16-F10. Description: Effect on doxorubicin accumulation in mouse B16/F10 cells by fluorimetry. Type of experiment: functional, cell-based.

The source made the active and inactive calls. The calls are words filed in the database; no cut-off is given here.

Chain of ATP-dependent translocase ABCB1 (P08183 whole entry): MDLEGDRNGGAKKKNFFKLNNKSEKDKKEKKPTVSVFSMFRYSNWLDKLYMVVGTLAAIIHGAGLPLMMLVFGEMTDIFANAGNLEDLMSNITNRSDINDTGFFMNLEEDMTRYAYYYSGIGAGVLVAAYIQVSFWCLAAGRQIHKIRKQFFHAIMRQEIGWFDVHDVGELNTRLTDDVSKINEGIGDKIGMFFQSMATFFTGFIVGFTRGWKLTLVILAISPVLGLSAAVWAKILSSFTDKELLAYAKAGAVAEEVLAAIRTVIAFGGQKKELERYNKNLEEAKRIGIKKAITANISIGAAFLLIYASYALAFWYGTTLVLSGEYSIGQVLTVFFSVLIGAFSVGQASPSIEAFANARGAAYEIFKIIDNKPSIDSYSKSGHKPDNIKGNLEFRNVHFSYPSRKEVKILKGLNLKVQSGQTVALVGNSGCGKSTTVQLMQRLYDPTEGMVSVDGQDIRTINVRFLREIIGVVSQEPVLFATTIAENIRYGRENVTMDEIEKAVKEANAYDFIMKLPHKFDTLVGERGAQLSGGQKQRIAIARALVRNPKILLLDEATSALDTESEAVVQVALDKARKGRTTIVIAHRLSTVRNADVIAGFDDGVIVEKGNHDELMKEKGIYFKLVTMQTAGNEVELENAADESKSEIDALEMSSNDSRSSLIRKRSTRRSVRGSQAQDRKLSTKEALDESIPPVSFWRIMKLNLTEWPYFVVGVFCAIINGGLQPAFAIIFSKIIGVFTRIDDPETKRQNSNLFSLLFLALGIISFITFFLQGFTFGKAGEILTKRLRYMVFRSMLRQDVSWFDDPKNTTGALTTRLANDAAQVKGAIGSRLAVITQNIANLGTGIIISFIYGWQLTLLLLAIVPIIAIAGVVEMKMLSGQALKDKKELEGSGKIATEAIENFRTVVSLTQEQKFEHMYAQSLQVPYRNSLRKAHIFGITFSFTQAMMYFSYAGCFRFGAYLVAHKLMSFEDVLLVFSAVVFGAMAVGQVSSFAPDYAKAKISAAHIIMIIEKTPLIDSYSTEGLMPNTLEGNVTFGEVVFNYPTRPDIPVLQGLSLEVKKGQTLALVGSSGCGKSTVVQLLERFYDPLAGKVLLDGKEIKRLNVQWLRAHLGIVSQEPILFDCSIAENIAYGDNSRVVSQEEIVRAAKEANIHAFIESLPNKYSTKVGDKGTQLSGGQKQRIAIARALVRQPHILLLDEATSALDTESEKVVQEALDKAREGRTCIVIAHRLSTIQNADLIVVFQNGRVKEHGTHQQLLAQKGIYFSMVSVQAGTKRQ

In the case of `CC1(C)C(=O)C(O)=C[C@]2(C)[C@H]3CC[C@@](C)(C(=O)CO)C=C3CC[C@@H]12` [LONCHOPHYLLOID A], the EC50 in experiment [1] was 193 µM. For the same compound, in experiment [2], the result was inactive.

For `CC1(C)[C@@H](O)CC[C@]2(C)[C@H]3CC[C@@](C)(C(=O)CO)C=C3CC[C@@H]12` [LONCHOPHYLLOID B], the EC50 in experiment [1] amounted to 195 µM. In addition, the result in experiment [2] was inactive.
